Structures are written as SMILES. Where only a bound is given, the exact number is not on record here.

Assay type in all cases: cell-based
Assay [1] has as its system Z138 cells. Kind of assay: MTT cell proliferation assay, Z138 cells. The note with it: Homo sapiens, Z-138, incubation approximately 64-72 hours. As to the method:
(§1) The MTT cell proliferation assay was used to study the cytotoxic properties of the compounds. The assay was performed according to the method described by Roche Molecular Biochemicals, with minor modifications. The assay is based on the cleavage of the tetrazolium salt, MTT, in the presence of an electron-coupling reagent. The water-insoluble formazan salt produced must be solubilized in an additional step. Cells grown in a 96-well tissue culture plate were incubated with the MTT solution for approximately 4 hours. After this incubation period, a water-insoluble formazan dye formed. After solubilization, the formazan dye was quantitated using a scanning multi-well spectrophotometer (ELISA reader). […] The cells were seeded at 5,000-10,000 cells in each well of 96-well plate in 100 μL of fresh culture medium and were allowed to attach overnight. The stock solutions of the compounds were diluted in 100 μL cell culture medium to obtain eight concentrations of each test compound, ranging from 1 nM to 30 μM. […] All optical densities were measured at 490 nm using a Vmax Kinetic Microplate Reader (Molecular Devices). In most cases, the assay was performed in duplicate and the results were presented as a mean percent inhibition to the negative control±SE. The following formula was used to calculate the percent of inhibition. Inhibition (%)=(1−(ODo/OD))×100.
(§2) The compounds were tested against MS751, Z138 and 3T3 cells. The MS751 cell line is derived from a metastasis to lymph node of human cervix from a patient diagnosed with squameous cell carcinoma of the cervix. The […] cell line is a mature B-cell acute lymphoblastic leukemia cell line derived from a patient with chronic lymphocytic leukemia. 3T3 cells are standard fibroblast cells; they were originally isolated from Swiss mouse embryo tissue.

For assay [2], the system named is MS751 cells. Kind of assay: MTT cell proliferation assay, MS751 cells. The note with it: Homo sapiens, incubation approximately 64-72 hours. The procedure: as §1, §2
Assay [3] concerns 3T3 cells. Kind of assay: MTT cell proliferation assay, 3T3 cells. The note with it: Mus musculus, NIH3T3; 3T3 fibroblast cells; incubation approximately 64-72 hours. The procedure: as §1, §2
The subject of assay [4] is NHDF cells. Nature of the assay: MTT cell proliferation assay, NHDF cells. The note with it: normal human dermal fibroblast cells. The procedure:
as §1, with “(%)=(1−(ODo/OD))×100. […]” for “(%)=(1−(ODo/OD))×100.”

The subject of assay [5] is Hep G2 cells. Nature of the assay: MTT cell proliferation assay, Hep G2 cells. The following applies: HepG2; human hepatocellular carcinoma cells. As to the method: as §1, with “(%)=(1−(ODo/OD))×100. […]” for “(%)=(1−(ODo/OD))×100.”
Assay [6] concerns HEP 3B cells. Kind of assay: MTT cell proliferation assay, HEP 3B cells. The following applies: Hep3B; human hepatocellular carcinoma cells. As to the method:
as §1, with “(%)=(1−(ODo/OD))×100. […]” for “(%)=(1−(ODo/OD))×100.”

Assay [7] concerns UCH-2 cell line. Kind of assay: MTT cell proliferation assay, UCH-2 cells. The note with it: UCH2; chordoma cell line. As to the method: as §1, with “(%)=(1−(ODo/OD))×100. […]” for “(%)=(1−(ODo/OD))×100.”
Assay [8] relates to SNU-182 cell line. Kind of assay: MTT cell proliferation assay, SNU-182 cells. The note with it: human hepatoma cell line. The procedure:
as §1, with “(%)=(1−(ODo/OD))×100. […]” for “(%)=(1−(ODo/OD))×100.”

Assay [9] deals with L3.6pl cell line. Kind of assay: MTT cell proliferation assay, L3.6pl cells. The note with it: Homo sapiens, pancreatic cancer cell line. As to the method: as §1, with “(%)=(1−(ODo/OD))×100. […]” for “(%)=(1−(ODo/OD))×100.”

For the compound `Nc1ccc(/C=C/C(=O)NCCOc2ccc(-c3ccc(C(=O)N4CC(F)(F)C4)cc3)cc2Cl)cn1` [Compound 318, (E)-3-(6-aminopyridin-3-yl)-N-(2-(3-chloro-4′-(3,3-difluoroazetidine-1-carbonyl)biphenyl-4-yloxy)ethyl)acrylamide], the IC50 in assay [1] was less than 100 nM; in [2], less than 100 nM; in assay [3], 100 to 5000 nM; in [4], less than 100 nM; in [5], less than 100 nM; in [6], less than 100 nM. The figures for the IC50 in [7], in assay [8] and in assay [9] were greater than 30000 nM, less than 100 nM and less than 100 nM, respectively.

As to `Nc1ccc(/C=C/C(=O)NCCOc2ccc(-c3nnc(C(=O)N4CCOCC4)o3)cc2Cl)cn1` [Compound 351, (E)-3-(6-aminopyridin-3-yl)-N-(2-(2-chloro-4-(5-(morpholine-4-carbonyl)-1,3,4-oxadiazol-2-yl)phenoxy)ethyl)acrylamide], the figures for the IC50 in assay [1], in [2] and in assay [3] were 100 to 5000 nM, 100 to 5000 nM and greater than 10000 nM, respectively.

Take `Nc1ccc(/C=C/C(=O)NCCOc2ccc(-c3ccc(C(=O)N4CCOCC4)nc3)cc2Cl)cn1` [Compound 321, (E)-3-(6-aminopyridin-3-yl)-N-(2-(2-chloro-4-(6-(morpholine-4-carbonyl)pyridin-3-yl)phenoxy)ethyl)acrylamide]: the IC50 in assay [1] was less than 100 nM; in [2] it was less than 100 nM; in [3] it was greater than 10000 nM.

As to `Nc1ccc(/C=C/C(=O)NCCOc2ccc(-c3cnc(C(=O)N4CCOCC4)nc3)cc2Cl)cn1` [Compound 328, (E)-3-(6-aminopyridin-3-yl)-N-(2-(2-chloro-4-(2-(morpholine-4-carbonyl)pyrimidin-5-yl)phenoxy)ethyl)acrylamide], the IC50 in assay [1] is 100 to 5000 nM; in [2], 100 to 5000 nM; in assay [3], greater than 10000 nM.

As for `C=C(C)c1ccc(-c2ccc(OCCNC(=O)/C=C/c3cccnc3)c(Cl)c2)s1` [Compound 315, (E)-N-(2-(2-chloro-4-(5-(prop-1-en-2-yl)thiophen-2-yl)phenoxy)ethyl)-3-(pyridin-3-yl)acrylamide], the figures for the IC50 in assay [1], in assay [2] and in [3] were 100 to 5000 nM, 5000 to 10000 nM and 5000 to 10000 nM, respectively.

Regarding `Nc1ccc(/C=C/C(=O)NCCOc2ccc(-c3cccc(C(=O)N4CCOCC4)c3)cc2Cl)cn1` [Compound 317, (E)-3-(6-aminopyridin-3-yl)-N-(2-(3-chloro-3′-(morpholine-4-carbonyl)biphenyl-4-yloxy)ethyl)acrylamide], the IC50 was less than 100 nM in assay [1], less than 100 nM in assay [2] and greater than 10000 nM in [3].

For `CC(C)(CNC(=O)/C=C/c1ccc(N)nc1)Oc1ccc(-c2ccc(C(=O)N3CC(F)(F)C3)cc2)cc1Cl` [Compound 333, (E)-3-(6-aminopyridin-3-yl)-N-(2-(3-chloro-4′-(3,3-difluoroazetidine-1-carbonyl)biphenyl-4-yloxy)-2-methylpropyl)acrylamide], the IC50 in assay [1] is 100 to 5000 nM; in assay [2] it was 100 to 5000 nM; in assay [3], greater than 10000 nM.

Regarding `Nc1ccc(/C=C/C(=O)NCC(F)(F)COc2ccc(-c3ccc(C(=O)N4CCOCC4)cc3)cc2Cl)cn1` [Compound 349, (E)-3-(6-aminopyridin-3-yl)-N-(3-(3-chloro-4′-(morpholine-4-carbonyl)biphenyl-4-yloxy)-2,2-difluoropropyl)acrylamide], the values for the IC50 in [1], in [2] and in assay [3] were less than 100 nM, less than 100 nM and 100 to 5000 nM, respectively.

For `CC(=O)c1ccc(-c2ccc(OCCNC(=O)/C=C/c3ccc(N)nc3)c(Cl)n2)s1` [Compound 330, (E)-N-(2-(6-(5-acetylthiophen-2-yl)-2-chloropyridin-3-yloxy)ethyl)-3-(6-aminopyridin-3-yl)acrylamide], the IC50 in assay [1] was 100 to 5000 nM; in assay [2], 100 to 5000 nM; in assay [3], greater than 10000 nM.

On to `CC(=O)c1ccc(-c2ccc(OCCNC(=O)/C=C/c3c(C)noc3C)c(Cl)c2)s1` [Compound 307, (E)-N-(2-(4-(5-acetylthiophen-2-yl)-2-chlorophenoxy)ethyl)-3-(3,5-dimethylisoxazol-4-yl)acrylamide], for which the IC50 in assay [1], in [2] and in assay [3] was greater than 10000 nM throughout.

As for `Nc1ccc(/C=C/C(=O)NCCOc2ccc(-c3ccc(C(=O)N4CCOCC4)cc3)cc2C(F)(F)F)cn1` [Compound 339, (E)-3-(6-aminopyridin-3-yl)-N-(2-(4′-(morpholine-4-carbonyl)-3-(trifluoromethyl)biphenyl-4-yloxy)ethyl)acrylamide], the values for the IC50 in assay [1], in assay [2] and in assay [3] were less than 100 nM, less than 100 nM and 100 to 5000 nM, respectively.
